Laboratory results: article PMC6891286, “Towards the Development of an In vivo Chemical Probe for Cyclin G Associated Kinase (GAK)” (Molecules, 2019)

Legend:
Test in all cases: KINOMEscan
Assay type in all cases: binding
Conditions in all cases: 35 at 1 µM; read-out: % inhibition
ACVR2A = biological target: T1, ACVR2A (Homo sapiens, UniProt P27037)
T1 construct: purchased Eurofins DiscoverX (KINOMEscan)
Description: (§1) KinomeScan Assay on 35 was performed as previously described at EuroFins DiscoverX (Fremont, CA, USA).

BRAF = biological target: T2, BRAF (Homo sapiens, UniProt P15056)
T2 construct: purchased Eurofins DiscoverX (KINOMEscan)
Description: as §1

CDK7 = biological target: T3, CDK7 (Homo sapiens, UniProt P50613)
T3 construct: purchased Eurofins DiscoverX (KINOMEscan)
Description: as §1

CDKL3 = biological target: T4, CDKL3 (Homo sapiens, UniProt Q8IVW4)
T4 construct: purchased Eurofins DiscoverX (KINOMEscan)
Description: as §1

CSF1R = biological target: T5, CSF1R (Homo sapiens, UniProt P07333)
T5 construct: purchased Eurofins DiscoverX (KINOMEscan)
Description: as §1

DCAMKL2 = biological target: T6, DCAMKL2 (Homo sapiens, UniProt Q8N568)
T6 construct: purchased Eurofins DiscoverX (KINOMEscan)
Description: as §1

DCAMKL3 = biological target: T7, DCAMKL3 (Homo sapiens, UniProt Q9C098)
T7 construct: purchased Eurofins DiscoverX (KINOMEscan)
Description: as §1

EPHA8 = biological target: T8, EPHA8 (Homo sapiens, UniProt P29322)
T8 construct: purchased Eurofins DiscoverX (KINOMEscan)
Description: as §1

FAK = biological target: T9, FAK (Homo sapiens, UniProt Q05397)
T9 construct: purchased Eurofins DiscoverX (KINOMEscan)
Description: as §1

GRK4 = biological target: T10, GRK4 (Homo sapiens, UniProt P32298)
T10 construct: purchased Eurofins DiscoverX (KINOMEscan)
T10 sequence (P32298 whole entry): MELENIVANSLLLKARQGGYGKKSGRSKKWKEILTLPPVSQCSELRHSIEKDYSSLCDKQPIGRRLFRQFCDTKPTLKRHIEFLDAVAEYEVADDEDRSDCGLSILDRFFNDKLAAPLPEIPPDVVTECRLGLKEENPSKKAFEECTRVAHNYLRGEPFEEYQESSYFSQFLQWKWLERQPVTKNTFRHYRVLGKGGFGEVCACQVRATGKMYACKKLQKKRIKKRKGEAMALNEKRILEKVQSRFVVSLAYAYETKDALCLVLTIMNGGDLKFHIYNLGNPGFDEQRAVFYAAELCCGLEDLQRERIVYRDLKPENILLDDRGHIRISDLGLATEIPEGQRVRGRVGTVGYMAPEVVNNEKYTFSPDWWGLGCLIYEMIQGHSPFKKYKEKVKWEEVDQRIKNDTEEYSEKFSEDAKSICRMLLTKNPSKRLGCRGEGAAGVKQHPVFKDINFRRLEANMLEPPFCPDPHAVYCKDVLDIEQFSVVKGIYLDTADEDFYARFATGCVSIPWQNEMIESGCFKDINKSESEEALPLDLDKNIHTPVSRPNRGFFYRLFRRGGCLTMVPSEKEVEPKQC
Description: as §1

HIPK1 = biological target: T11, HIPK1 (Homo sapiens, UniProt Q86Z02)
T11 construct: purchased Eurofins DiscoverX (KINOMEscan)
Description: as §1

HIPK2 = biological target: T12, HIPK2 (Homo sapiens, UniProt Q9H2X6)
T12 construct: purchased Eurofins DiscoverX (KINOMEscan)
Description: as §1

IRAK4 = biological target: T13, IRAK4 (Homo sapiens, UniProt Q9NWZ3)
T13 construct: purchased Eurofins DiscoverX (KINOMEscan)
Description: as §1

KIT = biological target: T14, KIT (Homo sapiens, UniProt P10721)
T14 construct: purchased Eurofins DiscoverX (KINOMEscan)
Description: as §1

KIT(L576P) = biological target: T15, KIT(L576P) (Homo sapiens, UniProt P10721, L576P)
T15 construct: purchased Eurofins DiscoverX (KINOMEscan)
Description: as §1

KIT(V559D,V654A) = biological target: T16, KIT(V559D,V654A) (Homo sapiens, UniProt P10721, V559D/V654A)
T16 construct: purchased Eurofins DiscoverX (KINOMEscan)
Description: as §1

MAP4K3 = biological target: T17, MAP4K3 (Homo sapiens, UniProt Q8IVH8)
T17 construct: purchased Eurofins DiscoverX (KINOMEscan)
Description: as §1

MAP4K5 = biological target: T18, MAP4K5 (Homo sapiens, UniProt Q9Y4K4)
T18 construct: purchased Eurofins DiscoverX (KINOMEscan)
Description: as §1

MAPKAPK2 = biological target: T19, MAPKAPK2 (Homo sapiens, UniProt P49137)
T19 construct: purchased Eurofins DiscoverX (KINOMEscan)
Description: as §1

MARK4 = biological target: T20, MARK4 (Homo sapiens, UniProt Q96L34)
T20 construct: purchased Eurofins DiscoverX (KINOMEscan)
T20 sequence (Q96L34 whole entry): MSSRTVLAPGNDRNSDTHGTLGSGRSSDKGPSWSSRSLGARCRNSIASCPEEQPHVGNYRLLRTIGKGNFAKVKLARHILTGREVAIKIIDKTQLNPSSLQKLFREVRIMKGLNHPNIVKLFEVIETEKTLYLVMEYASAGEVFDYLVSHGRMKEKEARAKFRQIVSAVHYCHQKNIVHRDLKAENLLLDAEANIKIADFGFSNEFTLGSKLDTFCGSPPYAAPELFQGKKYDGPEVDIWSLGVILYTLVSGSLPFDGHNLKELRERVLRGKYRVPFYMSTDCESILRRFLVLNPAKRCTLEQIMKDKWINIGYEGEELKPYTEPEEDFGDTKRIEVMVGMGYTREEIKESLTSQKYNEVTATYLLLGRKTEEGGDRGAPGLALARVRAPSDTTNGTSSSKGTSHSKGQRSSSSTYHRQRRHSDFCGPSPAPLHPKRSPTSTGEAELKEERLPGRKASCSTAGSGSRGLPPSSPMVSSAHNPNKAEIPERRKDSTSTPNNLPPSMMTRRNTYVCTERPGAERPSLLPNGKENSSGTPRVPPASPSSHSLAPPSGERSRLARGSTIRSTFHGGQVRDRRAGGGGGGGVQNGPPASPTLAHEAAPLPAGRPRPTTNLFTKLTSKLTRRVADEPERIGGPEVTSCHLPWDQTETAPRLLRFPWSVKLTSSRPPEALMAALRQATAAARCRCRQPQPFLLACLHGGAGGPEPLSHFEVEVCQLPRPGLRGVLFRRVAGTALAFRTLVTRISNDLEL
Description: as §1

MEK4 = biological target: T21, MEK4 (Homo sapiens, UniProt P45985)
T21 construct: purchased Eurofins DiscoverX (KINOMEscan)
T21 sequence (P45985 whole entry): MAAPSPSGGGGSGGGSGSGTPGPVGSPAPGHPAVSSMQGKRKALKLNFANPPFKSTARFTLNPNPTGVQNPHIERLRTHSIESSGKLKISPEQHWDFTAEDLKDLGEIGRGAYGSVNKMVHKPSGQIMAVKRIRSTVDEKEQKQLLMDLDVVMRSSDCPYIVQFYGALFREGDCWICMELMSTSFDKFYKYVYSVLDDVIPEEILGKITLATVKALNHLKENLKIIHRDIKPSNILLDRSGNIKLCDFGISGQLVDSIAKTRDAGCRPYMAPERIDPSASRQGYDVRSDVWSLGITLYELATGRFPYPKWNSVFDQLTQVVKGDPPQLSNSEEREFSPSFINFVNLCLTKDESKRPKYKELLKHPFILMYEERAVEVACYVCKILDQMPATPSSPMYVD
Description: as §1

MINK = biological target: T22, MINK (Homo sapiens, UniProt Q8N4C8)
T22 construct: purchased Eurofins DiscoverX (KINOMEscan)
Description: as §1

MKK7 = biological target: T23, MKK7 (Homo sapiens, UniProt O14733)
T23 construct: purchased Eurofins DiscoverX (KINOMEscan)
Description: as §1

MST2 = biological target: T24, MST2 (Homo sapiens, UniProt Q13188)
T24 construct: purchased Eurofins DiscoverX (KINOMEscan)
Description: as §1

MYLK4 = biological target: T25, MYLK4 (Homo sapiens, UniProt Q86YV6)
T25 construct: purchased Eurofins DiscoverX (KINOMEscan)
T25 sequence (Q86YV6 whole entry): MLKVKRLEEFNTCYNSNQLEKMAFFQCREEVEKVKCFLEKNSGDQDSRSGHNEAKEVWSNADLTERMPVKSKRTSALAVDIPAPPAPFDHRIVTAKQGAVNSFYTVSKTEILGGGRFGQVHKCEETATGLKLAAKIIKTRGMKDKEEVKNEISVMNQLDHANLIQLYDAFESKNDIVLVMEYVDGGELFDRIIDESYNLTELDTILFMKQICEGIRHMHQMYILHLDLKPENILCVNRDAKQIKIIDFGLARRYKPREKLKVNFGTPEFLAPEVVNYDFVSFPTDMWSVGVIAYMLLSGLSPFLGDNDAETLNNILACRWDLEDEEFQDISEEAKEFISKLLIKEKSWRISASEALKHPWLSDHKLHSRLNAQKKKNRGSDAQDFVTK
Description: as §1

PAK4 = biological target: T26, PAK4 (Homo sapiens, UniProt O96013)
T26 construct: purchased Eurofins DiscoverX (KINOMEscan)
Description: as §1

PAK6 = biological target: T27, PAK6 (Homo sapiens, UniProt Q9NQU5)
T27 construct: purchased Eurofins DiscoverX (KINOMEscan)
T27 sequence (Q9NQU5 whole entry): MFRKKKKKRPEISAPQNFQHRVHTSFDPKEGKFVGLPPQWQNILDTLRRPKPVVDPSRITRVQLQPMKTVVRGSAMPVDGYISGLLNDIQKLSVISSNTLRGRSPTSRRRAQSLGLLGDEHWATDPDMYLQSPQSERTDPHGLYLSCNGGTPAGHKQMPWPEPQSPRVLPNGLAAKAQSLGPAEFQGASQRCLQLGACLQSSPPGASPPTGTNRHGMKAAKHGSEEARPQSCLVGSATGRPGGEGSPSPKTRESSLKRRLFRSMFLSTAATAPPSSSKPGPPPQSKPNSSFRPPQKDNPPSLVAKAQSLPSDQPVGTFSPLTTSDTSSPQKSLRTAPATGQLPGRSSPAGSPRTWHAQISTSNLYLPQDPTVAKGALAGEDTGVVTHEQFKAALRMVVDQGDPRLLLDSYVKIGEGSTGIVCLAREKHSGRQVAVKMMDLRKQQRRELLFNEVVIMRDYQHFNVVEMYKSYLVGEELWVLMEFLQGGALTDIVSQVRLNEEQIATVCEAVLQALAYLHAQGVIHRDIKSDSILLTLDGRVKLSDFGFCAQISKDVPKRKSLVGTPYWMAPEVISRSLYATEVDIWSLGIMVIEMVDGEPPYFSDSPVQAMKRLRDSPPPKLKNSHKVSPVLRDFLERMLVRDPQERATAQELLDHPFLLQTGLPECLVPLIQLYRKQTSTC
Description: as §1

PAK7 = biological target: T28, PAK7 (Homo sapiens, UniProt Q9P286)
T28 construct: purchased Eurofins DiscoverX (KINOMEscan)
Description: as §1

PFPK5(P.falciparum) = biological target: T29, PFPK5(P.falciparum) (Plasmodium falciparum, UniProt P61075)
T29 construct: purchased Eurofins DiscoverX (KINOMEscan)
Description: as §1

PIK3C2B = biological target: T30, PIK3C2B (Homo sapiens, UniProt O00750)
T30 construct: purchased Eurofins DiscoverX (KINOMEscan)
Description: as §1

PKNB(M.tuberculosis) = biological target: T31, PKNB(M.tuberculosis) (Mycobacterium tuberculosis, UniProt P9WI81)
T31 construct: purchased Eurofins DiscoverX (KINOMEscan)
Description: as §1

PRP4 = biological target: T32, PRP4 (Homo sapiens, UniProt Q13523)
T32 construct: purchased Eurofins DiscoverX (KINOMEscan)
T32 sequence (Q13523 whole entry): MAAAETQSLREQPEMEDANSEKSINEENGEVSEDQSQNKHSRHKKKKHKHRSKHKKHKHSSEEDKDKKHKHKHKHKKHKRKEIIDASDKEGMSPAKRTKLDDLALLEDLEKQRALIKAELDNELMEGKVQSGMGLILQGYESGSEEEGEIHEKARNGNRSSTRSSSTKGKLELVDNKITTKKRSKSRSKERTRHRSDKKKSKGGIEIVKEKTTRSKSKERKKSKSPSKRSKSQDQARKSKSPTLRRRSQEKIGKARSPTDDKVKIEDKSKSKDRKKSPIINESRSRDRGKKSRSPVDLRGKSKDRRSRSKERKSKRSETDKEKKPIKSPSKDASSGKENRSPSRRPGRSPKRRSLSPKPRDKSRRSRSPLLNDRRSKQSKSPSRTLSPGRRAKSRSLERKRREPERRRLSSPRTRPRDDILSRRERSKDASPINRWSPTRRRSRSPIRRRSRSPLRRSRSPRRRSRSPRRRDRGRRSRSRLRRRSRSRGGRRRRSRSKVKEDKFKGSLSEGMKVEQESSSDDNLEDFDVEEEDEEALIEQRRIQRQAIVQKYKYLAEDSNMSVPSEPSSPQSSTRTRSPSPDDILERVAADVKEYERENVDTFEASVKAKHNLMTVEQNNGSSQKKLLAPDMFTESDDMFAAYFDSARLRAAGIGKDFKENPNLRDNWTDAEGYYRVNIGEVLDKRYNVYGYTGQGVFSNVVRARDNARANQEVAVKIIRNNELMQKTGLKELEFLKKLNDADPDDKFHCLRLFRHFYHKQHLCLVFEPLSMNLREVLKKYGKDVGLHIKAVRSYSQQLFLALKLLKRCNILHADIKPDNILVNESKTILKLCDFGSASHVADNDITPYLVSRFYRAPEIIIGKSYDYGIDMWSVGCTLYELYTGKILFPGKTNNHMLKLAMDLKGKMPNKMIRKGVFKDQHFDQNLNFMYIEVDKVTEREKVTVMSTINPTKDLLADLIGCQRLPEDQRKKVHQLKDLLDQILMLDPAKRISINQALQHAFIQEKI
Description: as §1

RIPK5 = biological target: T33, RIPK5 (Homo sapiens, UniProt Q6XUX3)
T33 construct: purchased Eurofins DiscoverX (KINOMEscan)
Description: as §1

[1] = biological target: T34, RSK3(Kin.Dom.2-C-terminal) (Homo sapiens, UniProt Q15349)
T34 construct: RSK3(Kin.Dom.2-C-terminal); purchased Eurofins DiscoverX (KINOMEscan)
Description: as §1

SGK = biological target: T35, SGK (Homo sapiens, UniProt O00141)
T35 construct: purchased Eurofins DiscoverX (KINOMEscan)
Description: as §1

SRPK2 = biological target: T36, SRPK2 (Homo sapiens, UniProt P78362)
T36 construct: purchased Eurofins DiscoverX (KINOMEscan)
Description: as §1

TLK1 = biological target: T37, TLK1 (Homo sapiens, UniProt Q9UKI8)
T37 construct: purchased Eurofins DiscoverX (KINOMEscan)
Description: as §1

ULK2 = biological target: T38, ULK2 (Homo sapiens, UniProt Q8IYT8)
T38 construct: purchased Eurofins DiscoverX (KINOMEscan)
T38 sequence (Q8IYT8 whole entry): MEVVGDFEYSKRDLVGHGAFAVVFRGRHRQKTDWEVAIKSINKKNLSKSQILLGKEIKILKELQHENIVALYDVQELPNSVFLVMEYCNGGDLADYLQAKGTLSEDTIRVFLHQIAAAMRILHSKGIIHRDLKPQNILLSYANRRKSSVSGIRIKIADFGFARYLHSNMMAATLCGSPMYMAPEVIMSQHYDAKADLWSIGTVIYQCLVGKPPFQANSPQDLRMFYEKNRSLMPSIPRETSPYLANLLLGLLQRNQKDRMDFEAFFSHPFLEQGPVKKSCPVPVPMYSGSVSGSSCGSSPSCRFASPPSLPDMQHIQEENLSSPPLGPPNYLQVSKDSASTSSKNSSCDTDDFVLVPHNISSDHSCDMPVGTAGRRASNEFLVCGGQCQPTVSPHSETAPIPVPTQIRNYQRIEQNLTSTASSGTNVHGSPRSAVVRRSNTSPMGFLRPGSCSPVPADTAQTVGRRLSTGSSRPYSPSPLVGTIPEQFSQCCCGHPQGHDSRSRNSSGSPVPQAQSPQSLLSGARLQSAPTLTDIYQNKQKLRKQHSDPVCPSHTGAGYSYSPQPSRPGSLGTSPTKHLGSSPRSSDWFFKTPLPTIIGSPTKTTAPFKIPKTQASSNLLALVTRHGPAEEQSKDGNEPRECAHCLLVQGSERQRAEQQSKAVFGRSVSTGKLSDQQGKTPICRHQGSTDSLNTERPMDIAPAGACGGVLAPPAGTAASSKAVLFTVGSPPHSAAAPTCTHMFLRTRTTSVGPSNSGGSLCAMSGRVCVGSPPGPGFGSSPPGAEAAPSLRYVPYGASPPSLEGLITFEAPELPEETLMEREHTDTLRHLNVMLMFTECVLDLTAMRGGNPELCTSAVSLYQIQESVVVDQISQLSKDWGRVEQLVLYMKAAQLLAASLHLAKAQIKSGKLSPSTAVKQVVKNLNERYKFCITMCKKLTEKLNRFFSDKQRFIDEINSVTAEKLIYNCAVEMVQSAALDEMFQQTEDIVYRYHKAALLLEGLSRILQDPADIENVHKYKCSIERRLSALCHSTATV
Description: as §1

WEE1 = biological target: T39, WEE1 (Homo sapiens, UniProt P30291)
T39 construct: purchased EuroFins DiscoverX (Fremont, CA, USA)
Description: as §1

YANK1 = biological target: T40, YANK1 (Homo sapiens, UniProt Q8WU08)
T40 construct: purchased EuroFins DiscoverX (Fremont, CA, USA)
Description: as §1

YANK2 = biological target: T41, YANK2 (Homo sapiens, UniProt Q9NY57)
T41 construct: purchased EuroFins DiscoverX (Fremont, CA, USA)
Description: as §1

p38-beta = biological target: T42, p38-beta (Homo sapiens, UniProt Q15759)
T42 construct: purchased Eurofins DiscoverX (KINOMEscan)
Description: as §1

p38-delta = biological target: T43, p38-delta (Homo sapiens, UniProt O15264)
T43 construct: purchased Eurofins DiscoverX (KINOMEscan)
Description: as §1

Measured: activity at 1 µM

Brc1ccc2nccc(Nc3ccc4cn[nH]c4c3)c2c1 [Compound 35, 6-Bromo-N-(1H-indazol-6-yl)quinolin-4-amine]
53%: HIPK1
95%: CSF1R | TLK1
77%: PKNB(M.tuberculosis)
79%: PRP4
94%: ULK2
99%: DCAMKL3 | FAK
88%: HIPK2
92%: BRAF
100%: all other assays above
